Results: US12662451B2, “Chemical compounds and uses thereof” (GLAXOSMITHKLINE INTELLECTUAL PROPERTY (NO.4) LIMITED, priority 2023, dated 2026)
Where a name gives a salt, the structure may show the parent alone.

Experiments:
[1] = target: T1, recombinant full-length WRN protein (1-1432) (Homo sapiens, UniProt Q14191); test: WRN unwinding activity, fluorogenic 384-well assay (Example A); assay type: biochemical; conditions: WRN unwinding activity, Table 2; for IC50: 4 hr, read-out: 4 hr UNW pIC50 (converted)
T1 construct: recombinant full-length WRN protein (1-1432)
In short: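 200 pM enzyme (2× stock) preincubated with compound 4 h at ambient temperature, then 200 μM ATP and 12 nM quenched TAMRA-labelled dsDNA (2× stocks) added for 60 min; EDTA-quenched. Buffer 25 mM Tris pH 8.0, 5 mM NaCl, 2 mM MgCl2. Fluorescence at 525/598 nm; pIC50 from four-parameter fit.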

[2] = test system: SW48 human colorectal cancer cells; test: Calculated free drug potency in SW48 cell assay, corrected with media free fraction (Example C); assay type: cell-based; conditions: SW48 pCC50 corrected with measured free fraction in cell assay media
Procedure: It was observed that the compounds of the present disclosure are bound to cell assay media to various degrees, which would affect the cellular potency analysis in Example B. To measure free drug potency, concentrations used in the cell assays were corrected with the measured free fraction determined in the cell assay media. Compounds were incubated in a rapid equilibrium dialysis (RED) at a nominal concentration of 1 μM, using a dialysis buffer of phosphate-buffered saline (PBS, 100 mM sodium phosphate+150 mM sodium chloride, pH 7.4). The test compound was spiked into the medium. Aliquots were added to the donor wells of a RED plate in triplicate, and blank PBS was added to each receiver well, at volumes recommended by the manufacturer. Plates were incubated with shaking at 200 rpm for 4 hours at 37° C. The resultant samples were analysed by LC-MS/MS using a specific and sensitive method. Results were reported as analyte:internal standard peak area ratios (PARs), and the percent unbound was calculated with the following equation:
[formula] where Cfinal=PAR in the T=240 minute sample; Cinitial=PAR in the T=0 minute sample. Cell culture media unbound percentage and calculated free drug potency of selected compounds along with their measured potency from Example B are shown in Table 3.

[3] = test system: SW48 human colorectal cancer cells (MSI-H cancer cells); test: SW48 cell viability, CellTiter-Glo, 120 hours (Example B); conditions: for CC50: Homo sapiens, SW48, 120 h, read-out: SW48 pCC50, SW48 cell viability, 120 hours incubation (converted)
[4] = SW48 cell viability, 120 hours incubation, Table 2
[5] = measured potency from Example B, as repeated in Table 3

T1 sequence (Q14191 whole entry): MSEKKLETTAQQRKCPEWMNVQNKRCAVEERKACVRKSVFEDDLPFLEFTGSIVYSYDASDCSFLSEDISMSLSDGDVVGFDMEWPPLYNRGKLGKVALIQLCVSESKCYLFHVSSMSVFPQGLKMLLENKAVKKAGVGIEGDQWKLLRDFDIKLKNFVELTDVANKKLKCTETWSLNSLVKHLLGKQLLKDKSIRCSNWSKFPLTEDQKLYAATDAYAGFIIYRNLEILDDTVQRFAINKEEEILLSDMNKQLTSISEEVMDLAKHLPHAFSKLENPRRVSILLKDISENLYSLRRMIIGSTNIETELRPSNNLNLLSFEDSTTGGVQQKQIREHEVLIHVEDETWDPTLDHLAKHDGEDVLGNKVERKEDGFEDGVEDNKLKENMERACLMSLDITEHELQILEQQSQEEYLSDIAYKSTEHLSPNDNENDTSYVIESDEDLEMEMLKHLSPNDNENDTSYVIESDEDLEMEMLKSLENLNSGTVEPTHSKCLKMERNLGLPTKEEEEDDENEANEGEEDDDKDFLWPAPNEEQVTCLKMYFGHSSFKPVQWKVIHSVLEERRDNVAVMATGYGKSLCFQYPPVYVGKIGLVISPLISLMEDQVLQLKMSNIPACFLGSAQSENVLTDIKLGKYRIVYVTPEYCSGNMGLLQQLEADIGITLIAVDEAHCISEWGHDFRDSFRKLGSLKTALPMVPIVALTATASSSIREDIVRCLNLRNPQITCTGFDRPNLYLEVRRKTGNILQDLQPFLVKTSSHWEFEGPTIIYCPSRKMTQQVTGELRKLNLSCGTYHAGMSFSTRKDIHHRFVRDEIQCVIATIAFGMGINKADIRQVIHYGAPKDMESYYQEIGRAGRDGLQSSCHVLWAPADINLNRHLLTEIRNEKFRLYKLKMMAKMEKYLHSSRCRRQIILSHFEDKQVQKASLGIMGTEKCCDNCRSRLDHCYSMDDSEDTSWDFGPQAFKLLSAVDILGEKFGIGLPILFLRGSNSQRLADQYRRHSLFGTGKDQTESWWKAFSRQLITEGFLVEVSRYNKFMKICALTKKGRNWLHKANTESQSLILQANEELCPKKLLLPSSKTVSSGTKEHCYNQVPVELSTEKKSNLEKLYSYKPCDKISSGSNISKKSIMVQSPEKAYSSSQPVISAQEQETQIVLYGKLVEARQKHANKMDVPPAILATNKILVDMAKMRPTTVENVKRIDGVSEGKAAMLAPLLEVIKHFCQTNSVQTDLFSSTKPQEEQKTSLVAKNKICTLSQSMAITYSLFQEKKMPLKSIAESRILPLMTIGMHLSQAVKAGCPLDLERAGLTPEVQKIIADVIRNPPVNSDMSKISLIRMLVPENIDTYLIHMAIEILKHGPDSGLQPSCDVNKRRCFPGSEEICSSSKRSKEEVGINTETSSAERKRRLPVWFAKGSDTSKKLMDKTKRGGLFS

Row | Compound | IC50 [1] | 4 hr UNW pIC50 [1] | Free Drug SW48 pCC50 [2] | SW48 pCC50 [3, 4] | SW48 pCC50 [3, 5] | CC50 ([3]; Table 2)
1 | Cc1nc2cc(S(=O)(=O)N(C)c3ccc([C@H]4CCC[C@@H](C(=O)Nc5ccc(C(F)(F)F)cc5F)[C@@H]4C(=O)O)cc3)cc(C3CCCN(C)C3)c2n1C (relative stereo) [Example 270, (1R,2R,6S)-2-((2-fluoro-4-(trifluoromethyl)phenyl)carbamoyl)-6-(4-((N,1,2-trimethyl-7-((S*)-1-methylpiperidin-3-yl)-1H-benzo[d]imidazole)-5-sulfonamido)phenyl)cyclohexane-1-carboxylic acid] |  | 9.0 | 7.18 | 6.5 | 6.5 | 
2 | Cc1nc2cc(S(=O)(=O)N(C)c3ccc([C@H]4C[C@@H]5OCC[C@@H]5[C@@H](C(=O)Nc5ccc(C(F)(F)F)cc5F)[C@@H]4C(=O)O)cc3)ccc2n1C (single isomer, unassigned) [Example 158] | 31.6 nM |  | 6.03 | 5.4 | 5.4 | 
3 | Cc1nc2cc(S(=O)(=O)N(C)c3ccc([C@H]4C[C@@H](O[C@H]5CCOC5)C[C@@H](C(=O)Nc5ccc(C(F)(F)F)cc5F)[C@@H]4C(=O)O)cc3)ccc2n1C (stereo in doubt) [Example 324, (1R*,2R*,4R*,6S*)-2-((2-fluoro-4-(trifluoromethyl)phenyl)carbamoyl)-4-(((S)-tetrahydrofuran-3-yl)oxy)-6-(4-((N,1,2-trimethyl-1H-benzo[d]imidazole)-5-sulfonamido)phenyl)cyclohexane-1-carboxylic acid] |  | 7.2 | 5.60 | 5.1 | 5.1 | 
4 | CN(c1ccc([C@H]2CCC[C@@H](C(=O)Nc3ccc(C(F)(F)F)cc3F)[C@@H]2C(=O)O)cc1)S(=O)(=O)c1ccc(-c2ccn(C)n2)cc1 [Example 99, (1R,2R,6S)-2-((2-fluoro-4-(trifluoromethyl)phenyl)carbamoyl)-6-(4-((N-methyl-4-(1-methyl-1H-pyrazol-3-yl)phenyl)sulfonamido)phenyl)cyclohexane-1-carboxylic acid] |  | 8.6 | 7.77 | 6.1 | 6.1 | 
5 | CN(c1ccc([C@H]2CCC[C@@H](C(=O)Nc3ccc(C(F)(F)F)cc3F)[C@@H]2C(=O)O)cc1)S(=O)(=O)c1cc(I)c2occc2c1 [Example 117, (1R,2R,6S)-2-((2-fluoro-4-(trifluoromethyl)phenyl)carbamoyl)-6-(4-((7-iodo-N-methylbenzofuran)-5-sulfonamido)phenyl)cyclohexane-1-carboxylic acid] | 63.1 nM |  | 8.36 |  | 5.4 | 3.98 µM
6 | CCC[C@H]1CC[C@H](NC(=O)[C@@H]2CCC[C@H](c3ccc(N(C)S(=O)(=O)c4ccc5c(c4)nc(C)n5C)cc3)[C@H]2C(=O)O)CC1 [Example 190, (1R,2R,6S)-2-(((1s,4R)-4-propylcyclohexyl)carbamoyl)-6-(4-((N,1,2-trimethyl-1H-benzo[d]imidazole)-5-sulfonamido)phenyl)cyclohexane-1-carboxylic acid] | 1.58 nM |  |  |  |  | 3.98 µM
7 | Cc1nc2cc(S(=O)(=O)N(C)c3ccc([C@H]4CCC[C@@H](CO[C@H]5CC[C@H](C(F)(F)F)CC5)[C@@H]4C(=O)O)cc3)ccc2n1C [Example 215, (1R,2R,6S)-2-((((1r,4R)-4-(trifluoromethyl)cyclohexyl)oxy)methyl)-6-(4-((N,1,2-trimethyl-1H-benzo[d]imidazole)-5-sulfonamido)phenyl)cyclohexane-1-carboxylic acid] | 79.4 nM |  |  |  |  | 20 µM
8 | Cc1nc2cc(S(=O)(=O)N(C)c3ccc([C@H]4CCC[C@@H](COc5ccc(C(F)(F)F)cc5)[C@@H]4C(=O)O)cc3)ccc2n1CCN [Example 216, (1R,2S,6R)-2-(4-((1-(2-aminoethyl)-N,2-dimethyl-1H-benzo[d]imidazole)-5-sulfonamido)phenyl)-6-((4-(trifluoromethyl)phenoxy)methyl)cyclohexane-1-carboxylic acid, 0.41 formic acid salt] | 5.01 nM |  |  |  |  | 12.6 µM
9 | CCN(c1ccc([C@H]2CCC[C@@H](C(=O)Nc3ccc(C(F)(F)F)cc3F)[C@@H]2C(=O)O)cc1)S(=O)(=O)c1ccc2c(c1)nc(C)n2C [Example 233] | 12.6 nM |  |  |  |  | 5.01 µM

Now from value to molecule, other results behind:

Row | IC50 [1] | Compound | 4 hr UNW pIC50 [1] | Free Drug SW48 pCC50 [2] | SW48 pCC50 [3, 4] | SW48 pCC50 [3, 5] | CC50 ([3]; Table 2)
10 | 7.94 nM | Cc1nc2cc(S(=O)(=O)N(C)c3ccc([C@H]4C[C@@H](N5CCOCC5)C[C@@H](C(=O)Nc5ccc(C(F)(F)F)cc5F)[C@@H]4C(=O)O)cc3)ccc2n1C (single isomer, unassigned) [Example 340] |  | 5.99 | 5.1 | 5.1 | 
11 | 10 nM | Cc1nc2cc(S(=O)(=O)N(C)c3ccc([C@H]4C[C@@H](N5CCC[C@@H](F)C5)C[C@@H](C(=O)Nc5ccc(C(F)(F)F)cc5F)[C@@H]4C(=O)O)cc3)ccc2n1C (single isomer, unassigned) [Example 347, rel-(1R*,2R*,4S*,6S*)-2-((2-fluoro-4-(trifluoromethyl)phenyl)carbamoyl)-4-((R)-3-fluoropiperidin-1-yl)-6-(4-((N,1,2-trimethyl-1H-benzo[d]imidazole)-5-sulfonamido)phenyl)cyclohexane-1-carboxylic acid] |  | 6.17 | 5.2 | 5.2 | 
12 | 2.51 nM | Cc1nc2cc(S(=O)(=O)N(C)c3ccc([C@H]4C[C@@H](N5CCC[C@@H](F)C5)C[C@@H](C(=O)Nc5ccc(C(F)(F)F)cc5F)[C@@H]4C(=O)O)cc3)ccc2n1C (single isomer, unassigned) [Example 376, rel-(1R*,2R*,4R*,6S*)-2-((2-fluoro-4-(trifluoromethyl)phenyl)carbamoyl)-4-((R)-3-fluoropiperidin-1-yl)-6-(4-((N,1,2-trimethyl-1H-benzo[d]imidazole)-5-sulfonamido)phenyl)cyclohexane-1-carboxylic acid] |  | 7.70 | 7.1 | 7.1 | 
13 | 6.31 nM | Cc1nc2cc(S(=O)(=O)N(C)c3ccc([C@@H]4C[C@@H]5COC[C@@H]5[C@@H](C(=O)Nc5ccc(C(F)(F)F)cc5F)[C@@H]4C(=O)O)cc3)ccc2n1C (single isomer, unassigned) [Example 390] |  | 6.49 | 5.7 | 5.7 | 
14 | 3.98 nM | Cc1nc2cc(S(=O)(=O)N(c3ccc([C@H]4CCC[C@@H](C(=O)Nc5ccc(C(F)(F)F)cc5F)[C@@H]4C(=O)O)cc3)C3CC3)ccc2n1C [Example 238, (1R,2S,6R)-2-(4-((N-cyclopropyl-1,2-dimethyl-1H-benzo[d]imidazole)-5-sulfonamido)phenyl)-6-((2-fluoro-4-(trifluoromethyl)phenyl)carbamoyl)cyclohexane-1-carboxylic acid] |  |  |  |  | 2 µM
15 | 3.16 nM | CN(c1ccc([C@H]2CCC[C@@H](C(=O)Nc3ccc(C(F)(F)F)cc3F)[C@@H]2C(=O)O)cc1)S(=O)(=O)c1ccc(O)c(C=O)c1 [Example 248] |  |  |  |  | 3.98 µM
16 | 2 nM | CN(c1ccc([C@H]2CCC[C@@H](C(=O)Nc3ccc(C(F)(F)F)cc3F)[C@@H]2C(=O)O)cc1)S(=O)(=O)c1ccc2c(c1)CNCC2 [Example 260, (1R,2R,6S)-2-((2-fluoro-4-(trifluoromethyl)phenyl)carbamoyl)-6-(4-((N-methyl-1,2,3,4-tetrahydroisoquinoline)-7-sulfonamido)phenyl)cyclohexane-1-carboxylic acid hydrochloride] |  |  |  |  | 1.58 µM
17 | 15.8 nM | CN(c1ccc([C@H]2CCC[C@@H](C(=O)Nc3ccc(C(F)(F)F)cc3F)[C@@H]2C(=O)O)cc1)S(=O)(=O)c1ccc(Br)c(O)c1 [Example 274, (1R,2S,6R)-2-(4-((4-bromo-3-hydroxy-N-methylphenyl)sulfonamido)phenyl)-6-((2-fluoro-4-(trifluoromethyl)phenyl)carbamoyl)cyclohexane-1-carboxylic acid] |  |  |  |  | 15.8 µM
